Data: patent publication US9738634B2, “Heterocyclic amide compound and herbicide” (SYNGENTA PARTICIPATIONS AG, priority 2013, dated 2017)

How the values were obtained:
Assay type in all cases: in vivo
crabgrass [1] = assay: Test Example 4: weedkilling efficacy by foliar treatment; D: crabgrass; conditions: treatment dosage 315 g/ha
In short: (§1)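 Seeds are spot-sown into sterilized diluvial soil and covered with about 1.5 cm of soil. After 14 days' greenhouse growth at 25 to 30° C, plants are sprayed on stems and leaves with diluted emulsion at the stated g/ha rate, then scored at 3 weeks.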

green foxtail [2] = assay: Test Example 3: weedkilling efficacy through soil treatment; E: green foxtail; conditions: treatment dosage 315 g/ha
In short: (§2)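 Crop and weed responses were judged three weeks after a uniform surface spray of the water-diluted emulsion at the given g/ha rate. Seeds sat beneath about 1.5 cm of sterilized diluvial soil, and boxes stood in a greenhouse at 25 to 30° C.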

black-grass [3] = assay: Test Example 3: weedkilling efficacy through soil treatment; H: black-grass; conditions: treatment dosage 315 g/ha
In short: as §2

soybean [4] = assay: Test Example 4: foliar treatment, effect on crop; d: soybean; conditions: treatment dosage 315 g/ha
In short: as §1

bulrush [5] = assay: Test Example 1: weedkilling efficacy, preemergent weed treatment in the submerged state; B: bulrush; conditions: treatment dosage 252 g/ha
In short: (§3)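 Pots of alluvial soil were flooded to a 4 cm depth. Mixed weed seeds were sown and 2.5 leaf-stage rice seedlings transplanted. On sowing day, water-diluted emulsion was applied to the water surface (dose in g/ha). After 3 weeks at 25–30 °C, effects were rated.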

crabgrass [6] = assay: Test Example 3: weedkilling efficacy through soil treatment; D: crabgrass; conditions: treatment dosage 315 g/ha
In short: as §2

green foxtail [7] = assay: Test Example 4: weedkilling efficacy by foliar treatment; E: green foxtail; conditions: treatment dosage 315 g/ha
In short: as §1

transplanted rice = assay: Test Example 1: preemergent weed treatment in the submerged state, effect on crop; a: transplanted rice; conditions: treatment dosage 252 g/ha
In short: as §3

wheat [8] = assay: Test Example 4: foliar treatment, effect on crop; e: wheat; conditions: treatment dosage 315 g/ha
In short: as §1

Indian mallow [9] = assay: Test Example 4: weedkilling efficacy by foliar treatment; K: Indian mallow; conditions: treatment dosage 315 g/ha
In short: as §1

barnyard grass [10] = assay: Test Example 2: weedkilling efficacy, growth period weed treatment in the submerged state; A: barnyard grass; conditions: treatment dosage 252 g/ha
In short: (§4)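 Weeds treated at the 1-2 leaf stage by application of diluted emulsion onto floodwater (4 cm depth, alluvial soil) at specified g/ha. Grown in greenhouse at 25 to 30° C; herbicidal effect rated three weeks after treatment.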

wheat [11] = assay: Test Example 3: soil treatment, effect on crop; e: wheat; conditions: treatment dosage 315 g/ha
In short: as §2

directly sown rice [12] = assay: Test Example 4: foliar treatment, effect on crop; b: directly sown rice; conditions: treatment dosage 315 g/ha
In short: as §1

barnyard grass [13] = assay: Test Example 1: weedkilling efficacy, preemergent weed treatment in the submerged state; A: barnyard grass; conditions: treatment dosage 252 g/ha
In short: as §3

chickweed [14] = assay: Test Example 4: weedkilling efficacy by foliar treatment; N: chickweed; conditions: treatment dosage 315 g/ha
In short: as §1

beet [15] = assay: Test Example 3: soil treatment, effect on crop; f: beet; conditions: treatment dosage 315 g/ha
In short: as §2

corn [16] = assay: Test Example 3: soil treatment, effect on crop; c: corn; conditions: treatment dosage 315 g/ha
In short: as §2

redroot pigweed [17] = assay: Test Example 3: weedkilling efficacy through soil treatment; L: redroot pigweed; conditions: treatment dosage 315 g/ha
In short: as §2

oval-leafed pondweed [18] = assay: Test Example 1: weedkilling efficacy, preemergent weed treatment in the submerged state; C: oval-leafed pondweed; conditions: treatment dosage 252 g/ha
In short: as §3

directly sown rice [19] = assay: Test Example 3: soil treatment, effect on crop; b: directly sown rice; conditions: treatment dosage 315 g/ha
In short: as §2

corn [20] = assay: Test Example 4: foliar treatment, effect on crop; c: corn; conditions: treatment dosage 315 g/ha
In short: as §1

bulrush [21] = assay: Test Example 2: weedkilling efficacy, growth period weed treatment in the submerged state; B: bulrush; conditions: treatment dosage 252 g/ha
In short: as §4

Indian mallow [22] = assay: Test Example 3: weedkilling efficacy through soil treatment; K: Indian mallow; conditions: treatment dosage 315 g/ha
In short: as §2

soybean [23] = assay: Test Example 3: soil treatment, effect on crop; d: soybean; conditions: treatment dosage 315 g/ha
In short: as §2

fig-leafed goosefoot [24] = assay: Test Example 4: weedkilling efficacy by foliar treatment; M: fig-leafed goosefoot; conditions: treatment dosage 315 g/ha
In short: as §1

birds-eye speedwell [25] = assay: Test Example 4: weedkilling efficacy by foliar treatment; p: birds-eye speedwell; conditions: treatment dosage 315 g/ha
In short: as §1

fig-leafed goosefoot [26] = assay: Test Example 3: weedkilling efficacy through soil treatment; M: fig-leafed goosefoot; conditions: treatment dosage 315 g/ha
In short: as §2

black-grass [27] = assay: Test Example 4: weedkilling efficacy by foliar treatment; H: black-grass; conditions: treatment dosage 315 g/ha
In short: as §1

catchweed [28] = assay: Test Example 3: weedkilling efficacy through soil treatment; O: catchweed; conditions: treatment dosage 315 g/ha
In short: as §2

oval-leafed pondweed [29] = assay: Test Example 2: weedkilling efficacy, growth period weed treatment in the submerged state; C: oval-leafed pondweed; conditions: treatment dosage 252 g/ha
In short: as §4

birds-eye speedwell [30] = assay: Test Example 3: weedkilling efficacy through soil treatment; p: birds-eye speedwell; conditions: treatment dosage 315 g/ha
In short: as §2

redroot pigweed [31] = assay: Test Example 4: weedkilling efficacy by foliar treatment; L: redroot pigweed; conditions: treatment dosage 315 g/ha
In short: as §1

beet [32] = assay: Test Example 4: foliar treatment, effect on crop; f: beet; conditions: treatment dosage 315 g/ha
In short: as §1

chickweed [33] = assay: Test Example 3: weedkilling efficacy through soil treatment; N: chickweed; conditions: treatment dosage 315 g/ha
In short: as §2

Italian ryegrass [34] = assay: Test Example 3: weedkilling efficacy through soil treatment; I: Italian ryegrass; conditions: treatment dosage 315 g/ha
In short: as §2

catchweed [35] = assay: Test Example 4: weedkilling efficacy by foliar treatment; O: catchweed; conditions: treatment dosage 315 g/ha
In short: as §1

wild oat [36] = assay: Test Example 4: weedkilling efficacy by foliar treatment; G: wild oat; conditions: treatment dosage 315 g/ha
In short: as §1

Italian ryegrass [37] = assay: Test Example 4: weedkilling efficacy by foliar treatment; I: Italian ryegrass; conditions: treatment dosage 315 g/ha
In short: as §1

wild oat [38] = assay: Test Example 3: weedkilling efficacy through soil treatment; G: wild oat; conditions: treatment dosage 315 g/ha
In short: as §2

Question: How did the “D (crabgrass) weedkilling efficacy grade” value (crabgrass [1]) turn out when `CC1=C(c2cccnc2F)C(=O)N(C(C)(C)C(=O)Nc2cc(Cl)ccn2)CO1` [B-2-07] was run?
Answer: 5 (weed kill ratio 90% or more, (practically complete withering))

Question: And the “E (green foxtail) weedkilling efficacy grade” value (green foxtail [2])?
Answer: 5 (weed kill ratio 90% or more, (practically complete withering))

Question: And the “H (black-grass) weedkilling efficacy grade” value (black-grass [3])?
Answer: 5 (weed kill ratio 90% or more, (practically complete withering))

Question: What about the “d (soybean) effect on crop grade” value (soybean [4]) of the same compound?
Answer: 3 (weed kill ratio 40% or more, less than 70%)

Question: What about the “B (bulrush) weedkilling efficacy grade” value (bulrush [5]) of the same compound?
Answer: 5 (weed kill ratio 90% or more, (practically complete withering))

Question: And the “D (crabgrass) weedkilling efficacy grade” value (crabgrass [6])?
Answer: 5 (weed kill ratio 90% or more, (practically complete withering))

Question: What about the “E (green foxtail) weedkilling efficacy grade” value (green foxtail [7]) of the same compound?
Answer: 4 (weed kill ratio 70% or more, less than 90%)

Question: And the “a (transplanted rice) effect on crop grade” value (transplanted rice)?
Answer: 0 (weed kill ratio 5% or less (practically no effect))

Question: And the “e (wheat) effect on crop grade” value (wheat [8])?
Answer: 0 (weed kill ratio 5% or less (practically no effect))

Question: And the “K (Indian mallow) weedkilling efficacy grade” value (Indian mallow [9])?
Answer: 1 (weed kill ratio 5% or more, less than 20%)

Question: What about the “A (barnyard grass) weedkilling efficacy grade” value (barnyard grass [10]) of the same compound?
Answer: 3 (weed kill ratio 40% or more, less than 70%)

Question: And the “e (wheat) effect on crop grade” value (wheat [11])?
Answer: 0 (weed kill ratio 5% or less (practically no effect))

Question: What about the “b (directly sown rice) effect on crop grade” value (directly sown rice [12]) of the same compound?
Answer: 4 (weed kill ratio 70% or more, less than 90%)

Question: And the “A (barnyard grass) weedkilling efficacy grade” value (barnyard grass [13])?
Answer: 5 (weed kill ratio 90% or more, (practically complete withering))

Question: What about the “N (chickweed) weedkilling efficacy grade” value (chickweed [14]) of the same compound?
Answer: 2 (weed kill ratio 20% or more, less than 40%)

Question: What about the “f (beet) effect on crop grade” value (beet [15]) of the same compound?
Answer: 1 (weed kill ratio 5% or more, less than 20%)

Question: What about the “c (corn) effect on crop grade” value (corn [16]) of the same compound?
Answer: 3 (weed kill ratio 40% or more, less than 70%)

Question: What about the “L (redroot pigweed) weedkilling efficacy grade” value (redroot pigweed [17]) of the same compound?
Answer: 3 (weed kill ratio 40% or more, less than 70%)

Question: What about the “C (oval-leafed pondweed) weedkilling efficacy grade” value (oval-leafed pondweed [18]) of the same compound?
Answer: 5 (weed kill ratio 90% or more, (practically complete withering))

Question: And the “b (directly sown rice) effect on crop grade” value (directly sown rice [19])?
Answer: 4 (weed kill ratio 70% or more, less than 90%)

Question: What about the “c (corn) effect on crop grade” value (corn [20]) of the same compound?
Answer: 1 (weed kill ratio 5% or more, less than 20%)

Question: And the “B (bulrush) weedkilling efficacy grade” value (bulrush [21])?
Answer: 5 (weed kill ratio 90% or more, (practically complete withering))

Question: What about the “K (Indian mallow) weedkilling efficacy grade” value (Indian mallow [22]) of the same compound?
Answer: 2 (weed kill ratio 20% or more, less than 40%)

Question: And the “d (soybean) effect on crop grade” value (soybean [23])?
Answer: 1 (weed kill ratio 5% or more, less than 20%)

Question: What about the “M (fig-leafed goosefoot) weedkilling efficacy grade” value (fig-leafed goosefoot [24]) of the same compound?
Answer: 3 (weed kill ratio 40% or more, less than 70%)

Question: What about the “P (birds-eye speedwell) weedkilling efficacy grade” value (birds-eye speedwell [25]) of the same compound?
Answer: 3 (weed kill ratio 40% or more, less than 70%)

Question: What about the “M (fig-leafed goosefoot) weedkilling efficacy grade” value (fig-leafed goosefoot [26]) of the same compound?
Answer: 3 (weed kill ratio 40% or more, less than 70%)

Question: And the “H (black-grass) weedkilling efficacy grade” value (black-grass [27])?
Answer: 4 (weed kill ratio 70% or more, less than 90%)

Question: What about the “O (catchweed) weedkilling efficacy grade” value (catchweed [28]) of the same compound?
Answer: 3 (weed kill ratio 40% or more, less than 70%)

Question: And the “C (oval-leafed pondweed) weedkilling efficacy grade” value (oval-leafed pondweed [29])?
Answer: 2 (weed kill ratio 20% or more, less than 40%)

Question: What about the “P (birds-eye speedwell) weedkilling efficacy grade” value (birds-eye speedwell [30]) of the same compound?
Answer: 5 (weed kill ratio 90% or more, (practically complete withering))

Question: And the “L (redroot pigweed) weedkilling efficacy grade” value (redroot pigweed [31])?
Answer: 2 (weed kill ratio 20% or more, less than 40%)

Question: And the “f (beet) effect on crop grade” value (beet [32])?
Answer: 3 (weed kill ratio 40% or more, less than 70%)

Question: What about the “N (chickweed) weedkilling efficacy grade” value (chickweed [33]) of the same compound?
Answer: 3 (weed kill ratio 40% or more, less than 70%)

Question: What about the “I (Italian ryegrass) weedkilling efficacy grade” value (Italian ryegrass [34]) of the same compound?
Answer: 5 (weed kill ratio 90% or more, (practically complete withering))

Question: What about the “O (catchweed) weedkilling efficacy grade” value (catchweed [35]) of the same compound?
Answer: 2 (weed kill ratio 20% or more, less than 40%)

Question: What about the “G (wild oat) weedkilling efficacy grade” value (wild oat [36]) of the same compound?
Answer: 3 (weed kill ratio 40% or more, less than 70%)

Question: What about the “I (Italian ryegrass) weedkilling efficacy grade” value (Italian ryegrass [37]) of the same compound?
Answer: 5 (weed kill ratio 90% or more, (practically complete withering))

Question: What about the “G (wild oat) weedkilling efficacy grade” value (wild oat [38]) of the same compound?
Answer: 3 (weed kill ratio 40% or more, less than 70%)
